These results are taken from patent US20100292210A1, “Novel Compounds for A-Beta-Related Pathologies” (AstraZeneca AB, priority 2009, published 2010).

The structures appear in SMILES notation. Where only a bound is given, the exact number is not on record here.

The test system of the assay is Aβ42 release. The assay is described as follows: Aβ42 release from HEK cells stably expressing APPswe, Meso Scale Discovery electrochemiluminescence assay. The conditions noted are these: Homo sapiens, HEK293; HEK cell line stably expressing APPswe; 4-6 h incubation with test compound; Aβ42 secreted to cell medium; read-out: pIC50 values of Aβ42 release (converted). It counts as cell-based. The method, then:
The level of activity of the compounds on Aβ formation was tested using the following method:
Compounds were diluted in 100% DMSO and stored at […] prior to use. Human Embryonic Kidney (HEK) cell line stably expressing APP with the Swedish mutation (APPswe) were cultured using Dulbecco's Modified Eagles medium (DMEM) supplied with […] glucose, Na-pyruvate and GlutaMAX with 10% FBS, 100 U/ml penicillin-streptomycin (PEST) respectively, 1×non-essential amino acids (NEAA), […], 100 μg/ml Zeocine. Cells at about 80% confluence were washed with PBS, detached from culture flasks using 1×Trypsin/EDTA diluted in PBS, re-suspended in cell media and plated in 384-well poly-d-lysine coated cell culture plates at about 10000-15000 cells/well, in 25 μL cell media. Optionally, cryo-preserved cells (frozen and stored at −140° C. in 90% cell media and 10% DMSO) were thawed, washed and plated as above. Next the cells were incubated for 15-24 h at 37° C. and 5% CO2, after which cell medium was changed. Fresh medium containing test compound diluted ×200 from prepared compound plate was added to the cells before further incubation for 4-6 hours at 37° C. and 5% CO2. After incubation with test compound the amount of Aβ peptides, including Aβ42, Aβ40, Aβ39, Aβ38 and Aβ37, secreted to cell medium was analyzed using the electrochemiluminescence assay technology from Meso Scale Discovery Technology, in combination with specific antibodies raised against the different Aβ peptides. Potential cytotoxic effects of the compounds were usually assayed by measuring the ATP content (ViaLight) from cell lysate.
Regarding `CN1Cc2ccc(Nc3ccc(-c4cnn(C)c4)cc3)nc2O[C@H](c2ccccc2)C1` [Example 59, (R)-4-Methyl-N-(4-(1-methyl-1H-pyrazol-4-yl)phenyl)-2-phenyl-2,3,4,5-tetrahydropyrido[3,2-f][1,4]oxazepin-8-amine], the IC50 is 79.4 nM. Take `COc1cc(Nc2ncc3c(n2)O[C@H](c2ccccc2)CN(CCF)C3)ccc1-n1cnc(C)c1` [Example 12, (R)-6-(2-fluoroethyl)-N-(3-methoxy-4-(4-methyl-1H-imidazol-1-yl)phenyl)-8-phenyl-5,6,7,8-tetrahydropyrimido[5,4-f][1,4]oxazepin-2-amine]: the IC50 is 15.8 nM. For the compound `COc1cc(Nc2ccc3c(n2)OC(c2ccccc2)CN(C)C3=O)ccc1-n1cnc(C)c1` (stereo not drawn) [Example 4, 8-(3-methoxy-4-(4-methyl-1H-imidazol-1-yl)phenylamino)-4-methyl-2-phenyl-3,4-dihydropyrido[3,2-f][1,4]oxazepin-5(2H)-one], the IC50 is 200 nM. For `COc1cc(Nc2ccc3c(n2)OC(c2cccnc2)CN(C)C3)ccc1-n1cnc(C)c1` (stereo not drawn) [Example 19, N-(3-methoxy-4-(4-methyl-1H-imidazol-1-yl)phenyl)-4-methyl-2-(pyridin-3-yl)-2,3,4,5-tetrahydropyrido[3,2-f][1,4]oxazepin-8-amine] the value was 158 nM; for `COc1nc(Nc2ccc3c(n2)O[C@H](c2ccccc2)CN(C)C3)ccc1-c1cnn(C)c1` [Example 50, (R)—N-(6-Methoxy-5-(1-methyl-1H-pyrazol-4-yl)pyridin-2-yl)-4-methyl-2-phenyl-2,3,4,5-tetrahydropyrido[3,2-f][1,4]oxazepin-8-amine], 7.94 nM; for `CN1Cc2ccc(Nc3ccc(-n4ccnc4CO)cc3)nc2O[C@H](c2ccccc2)C1` [Example 60, (R)-(1-(4-(4-Methyl-2-phenyl-2,3,4,5-tetrahydropyrido[3,2-f][1,4]oxazepin-8-ylamino)phenyl)-1H-imidazol-2-yl)methanol], 31.6 nM. With `Cc1nccn1-c1ccc(Nc2ccc3c(n2)OC(c2ccccc2)CN(C)C3)cc1` (stereo not drawn) [Example 8, 4-Methyl-N-(4-(2-methyl-1H-imidazol-1-yl)phenyl)-2-phenyl-2,3,4,5-tetrahydropyrido[3,2-f][1,4]oxazepin-8-amine], the IC50 is 158 nM. As to `COc1cc(Nc2ccc3c(n2)O[C@H](c2ccccc2)CN(CCO)C3)ccc1-n1cncc1C` [Example 34, (R)-2-(8-(3-Methoxy-4-(5-methyl-1H-imidazol-1-yl)phenylamino)-2-phenyl-2,3-dihydropyrido[3,2-f][1,4]oxazepin-4(5H)-yl)ethanol], the IC50 is 251 nM. Consider `COc1cc(Nc2ccc3c(n2)OC(C2CC2)CN(C)C3)ccc1-n1cnc(C)n1` (stereo not drawn) [Example 51, 2-Cyclopropyl-N-(3-methoxy-4-(3-methyl-1H-1,2,4-triazol-1-yl)phenyl)-4-methyl-2,3,4,5-tetrahydropyrido[3,2-f][1,4]oxazepin-8-amine], for which the IC50 is 501 nM. The value for `CN1CC(c2ccccc2)Oc2nc(Nc3ccc(-c4cnco4)cc3)ccc2C1=O` (stereo not drawn) [Example 3, 4-methyl-8-(4-(1,3-oxazol-5-yl)phenylamino)-2-phenyl-3,4-dihydropyrido[3,2-f][1,4]oxazepin-5(2H)-one] was 398 nM; that for `Cc1cccc(C2CN(C)Cc3ccc(Nc4ccc(-c5cnn(C)c5)nc4)nc3O2)n1` (stereo not drawn) [Example 54, 4-Methyl-N-(6-(1-methyl-1H-pyrazol-4-yl)pyridin-3-yl)-2-(6-methylpyridin-2-yl)-2,3,4,5-tetrahydropyrido[3,2-f][1,4]oxazepin-8-amine] was over 3160 nM; that for `CN1CC(c2ccccc2)Oc2nc(Oc3ccc(-n4ccnc4)cc3)ncc2C1=O` (stereo not drawn) [Example 28, 2-(4-(1H-Imidazol-1-yl)phenoxy)-6-methyl-8-phenyl-7,8-dihydropyrimido[5,4-f][1,4]oxazepin-5(6H)-one] was 6310 nM.
